Tests used:
Type in all cases: in vivo, male ICR mice
[1] = test system: pulmonary fibrosis model mice exposed to bleomycin in the trachea; experiment: Preventive effect on pulmonary fibrosis (Example 1): amount of hydroxyproline in the lungs; conditions: 50 mg/kg/day oral once a day from the day after bleomycin exposure, day 21, FIG. 2; for amount of hydroxyproline in the lungs as compared to the control group: Dunnett test
Description: (§1) Compound A was dissolved in a 0.5% aqueous solution of methylcellulose (methylcellulose: Shin-Etsu Chemical Co., Ltd., distilled water: Otsuka Pharmaceutical Factory, Inc.) to prepare a sample solution. Further, losartan (Tokyo Chemical Industry Co., Ltd.) was dissolved in a 0.5% aqueous solution of methylcellulose to prepare a sample solution. Furthermore, pirfenidone (Ark Pharma Inc.) was dissolved in a 0.5% aqueous solution of methylcellulose to prepare a sample solution.
(§2) 6-week-old male ICR mice (Japan SLC, Inc.) were exposed to bleomycin (Nippon Kayaku Co., Ltd.) (1.5 mg/kg) dissolved in physiological saline in the trachea to prepare pulmonary fibrosis model mice.
(§3) Investigation was conducted in mice not exposed to bleomycin (exposed to physiological saline in the trachea) in the normal group (6 mice), and pulmonary fibrosis model mice exposed to bleomycin in the trachea divided into 4 groups (control, compound A 50 mg/kg/day, losartan 50 mg/kg/day, and pirfenidone 400 mg/kg/day; 10 mice in each group). […]
The lung tissue extracted from the mouse was homogenized in a PBS solution, then mixed with an equal volume of 12N hydrochloric acid in a tube, and incubated at 110° C. for 20 to 24 hours. […] 10 μL of the sample was added with 100 μL of chloramine T solution (1.4% chloramine T, 10% n-propanol, 80% citrate acetate buffer) and incubated at room temperature for 20 minutes, then added with 100 μL of Ehrlich's reagent (1 M p-dimethylamino benzaldehyde, 20% perchloric acid, 50% n-propanol) and incubated at 65° C. for 15 minutes, and the absorbance at 550 nm was measured to quantify the amount of hydroxyproline.

[2] = test system: pulmonary fibrosis model mice exposed to bleomycin in the trachea; experiment: Preventive effect on pulmonary fibrosis (Example 1): lung wet weight; conditions: FIG. 1; for lung weight as compared to the normal group: lungs extracted 21 days after exposure
Description: as §1, §2
Investigation was conducted in mice not exposed to bleomycin (exposed to physiological saline in the trachea) in the normal group (6 mice), and pulmonary fibrosis model mice exposed to bleomycin in the trachea divided into 4 groups (control, compound A 50 mg/kg/day, losartan 50 mg/kg/day, and pirfenidone 400 mg/kg/day; 10 mice in each group). From the day after exposure to bleomycin, a 0.5% aqueous solution of methylcellulose was orally administered (administered twice a day) to the normal group and the control group, the sample solution of compound A prepared above was orally administered (administered once a day) to the compound A administration group, the sample solution of losartan prepared above was orally administered (administered once a day) to the losartan administration group, and the sample solution of pirfenidone prepared above was orally administered (administered twice a day) to the pirfenidone administration group, respectively. Twenty-one days after the bleomycin exposure, the mice were anesthetized and whole lung tissues were extracted.
After washing the lung tissue extracted from the mouse with physiological saline, water was removed with a filter paper, and the wet weight was measured.

[3] = test system: pulmonary fibrosis model mice exposed to bleomycin in the trachea; experiment: Therapeutic effect on pulmonary fibrosis (Example 2): amount of hydroxyproline in the lungs; conditions: day 21, Dunnett test, FIG. 3
Description: The lung tissue extracted from the mouse was homogenized in a PBS solution, then mixed with an equal volume of 12N hydrochloric acid in a tube, and incubated at 110° C. for 20 to 24 hours. After the incubation, the solution was volatilized by opening the tube and continuing the incubation. Thereafter, the resulting mixture was suspended in a citrate acetate buffer (5% citric acid, 1.2% glacial acetic acid, 7.25% sodium acetate, 3.4% sodium hydroxide, pH 6.0), and the solution filtered with a 0.45 μm diameter centrifugal filter was used as a sample. 10 μL of the sample was added with 100 μL of chloramine T solution (1.4% chloramine T, 10% n-propanol, 80% citrate acetate buffer) and incubated at room temperature for 20 minutes, then added with 100 μL of Ehrlich's reagent (1 M p-dimethylamino benzaldehyde, 20% perchloric acid, 50% n-propanol) and incubated at 65° C. for 15 minutes, and the absorbance at 550 nm was measured to quantify the amount of hydroxyproline.
Compound A was dissolved in a 0.5% aqueous solution of methylcellulose (methylcellulose: Shin-Etsu Chemical Co., Ltd., distilled water: Otsuka Pharmaceutical Factory, Inc.) to prepare a sample solution. Further, losartan (Tokyo Chemical Industry Co., Ltd.) was dissolved in a 0.5% aqueous solution of methylcellulose to prepare a sample solution. Furthermore, pirfenidone (Ark Pharma Inc.) was dissolved in a 0.5% aqueous solution of carboxymethyl cellulose (carboxymethyl cellulose: Maruishi Pharmaceutical Co., Ltd.) to prepare a sample solution.
Model mice were prepared in the same manner as in Example 1.
as §3
The amount of hydroxyproline in the mice was measured by the same method as in Example 1.

[4] = 50 mg/kg/day oral once a day from the day after bleomycin exposure
[5] = 50 mg/kg/day oral once a day from the 7th day after bleomycin exposure

CCCc1nc(C(C)C)n(-c2ncc(OCC)cn2)c(=O)c1Cc1ccc(-c2ccccc2-c2noc(=O)[nH]2)nc1 [compound A, 3-[2-(5-{[1-(5-ethoxypyrimidin-2-yl)-2-isopropyl-6-oxo-4-propyl-1,6-dihydropyrimidin-5-yl]methyl}pyridin-2-yl)phenyl]-1,2,4-oxadiazol-5(4H)-one]
amount of hydroxyproline in the lungs as compared to the control group [1]: significant decrease in hydroxyproline in the lung
decrease of hydroxyproline in the lung relative to the losartan administration group [1]: larger decrease than the losartan administration group
lung weight as compared with the control group ([2]; 50 mg/kg/day oral once a day from the day after bleomycin exposure, day 21, Dunnett test): significant decrease in lung weight
lung weight as compared to the normal group [2, 4]: no significant increase in lung weight
amount of hydroxyproline in the lungs as compared to the control group [3, 5]: significant decrease in hydroxyproline in the lung

CCCCc1nc(Cl)c(CO)n1Cc1ccc(-c2ccccc2-c2nn[nH]n2)cc1 [losartan]
amount of hydroxyproline in the lungs as compared to the control group [1]: significant decrease in hydroxyproline in the lung
lung weight as compared to the normal group [2, 4]: significant increase in lung weight
amount of hydroxyproline in the lungs as compared to the control group [3, 5]: no significant difference

Cc1ccc(=O)n(-c2ccccc2)c1 [pirfenidone]
lung weight as compared to the normal group ([2]; 400 mg/kg/day oral twice a day from the day after bleomycin exposure): significant increase in lung weight
amount of hydroxyproline in the lungs as compared to the control group ([3]; 400 mg/kg/day oral twice a day from the 7th day after bleomycin exposure): no significant difference
